Results from patent US20260042743A1, “SUBSTITUTED BENZIMIDAZOLES FOR TREATING VIRAL DISEASES” (COUNCIL OF SCIENTIFIC AND INDUSTRIAL RESEARCH, priority 2022, published 2026).

System: SARS-CoV-2
Test: cell-based anti-viral assay using Vero E6 cell line, viral RNA by qRT-PCR
Conditions: Vero E6 cells, 48 h; for ΔCt (1 μM) / inhibition at 1 µM: 1 μM compound; for ΔCt (1 μM) / ΔCt (5 μM): increase in Ct vs no-drug control; for ΔCt (5 μM) / inhibition at 5 µM: 5 μM compound; for inhibition at 1 µM / inhibition at 5 µM: Severe acute respiratory syndrome coronavirus 2, Vero C1008, calculated from ΔCt; for inhibition at 1 µM: read-out: % SARS-CoV-2 Inactivation (1 μM); for inhibition at 5 µM: read-out: % SARS-CoV-2 Inactivation (5 μM)

Row | Structure (SMILES) | ΔCt (1 μM) | ΔCt (5 μM) | inhibition at 1 µM | inhibition at 5 µM
1 | O=S1(=O)CCC(Nc2nc3c(C(F)(F)F)cc(C(F)(F)F)cc3[nH]2)C1 (stereo not drawn) [Example 20, 3-((4,6-bis(trifluoromethyl)-1H-benzo[d]imidazol-2-yl)amino)tetrahydrothiophene 1,1-dioxide] | 1.7 | 3.7 | < 3% | > 90%
2 | FC(F)(F)c1cc(Nc2nc3ccc(C(F)(F)F)cc3[nH]2)cc(C(F)(F)F)c1 [Example 31, N-(3,5-bis(trifluoromethyl)phenyl)-6-(trifluoromethyl)-1H-benzo[d]imidazol-2-amine] | 5.3 | 9 | > 95% | > 99%
3 | CN(c1cc(C(F)(F)F)cc(C(F)(F)F)c1)c1nc2cccc(C(F)(F)F)c2[nH]1 [Example 44, N-(3,5-bis(trifluoromethyl)phenyl)-N-methyl-7-(trifluoromethyl)-1H-benzo[d]imidazol-2-amine] | 1.4 | 5 | < 3% | > 95%
4 | FC(F)(F)c1cccc(Nc2nc3ccc(C(F)(F)F)cc3[nH]2)c1 [Example 32, 6-(trifluoromethyl)-N-(3-(trifluoromethyl)phenyl)-1H-benzo[d]imidazol-2-amine] | 0.2 | 9.3 | < 3% | > 99%
5 | CC(C)c1ccccc1Nc1nc2c(C(F)(F)F)cc(C(F)(F)F)cc2[nH]1 [Example 18, N-(2-isopropylphenyl)-4,6-bis(trifluoromethyl)-1H-benzo[d]imidazol-2-amine] | 1.4 | 1.4 | < 3% | < 3%
6 | FC(F)(F)Oc1ccc2nc(Nc3cc(C(F)(F)F)cc(C(F)(F)F)c3)[nH]c2c1 [Example 29, N-(3,5-bis(trifluoromethyl)phenyl)-6-(trifluoromethoxy)-1H-benzo[d]imidazol-2-amine] | 4.7 | 11.5 | > 95% | 99.9%
7 | FC(F)(F)c1cc(C(F)(F)F)c2nc(Nc3cccnc3)[nH]c2c1 [Example 5, N-(pyridin-3-yl)-4,6-bis(trifluoromethyl)-1H-benzo[d]imidazol-2-amine] | 1 | 1.2 | < 3% | < 3%
8 | COc1ccc(Nc2nc3c(C(F)(F)F)cc(C(F)(F)F)cc3[nH]2)cc1Br [Example 4, N-(3-bromo-4-methoxyphenyl)-4,6-bis(trifluoromethyl)-1H-benzo[d]imidazol-2-amine] | 2.7 | 6 | < 3% | > 95%
9 | Fc1cc2nc(NCc3ccccc3)[nH]c2cc1F [Example 13, N-benzyl-5,6-difluoro-1H-benzo[d]imidazol-2-amine] | 1.3 | 1 | < 3% | < 3%
10 | Fc1cccc(Nc2nc3c(C(F)(F)F)cc(C(F)(F)F)cc3[nH]2)c1 [Example 24, N-(3-fluorophenyl)-4,6-bis(trifluoromethyl)-1H-benzo[d]imidazol-2-amine] | 0.7 | 4.3 | < 3% | > 90%
11 | FC(F)(F)Oc1cccc(Nc2nc3c(C(F)(F)F)cc(C(F)(F)F)cc3[nH]2)c1 [Example 22, N-(3-(trifluoromethoxy)phenyl)-4,6-bis(trifluoromethyl)-1H-benzo[d]imidazol-2-amine] | 3.3 | 7.4 | 90% | 99%
12 | FC(F)(F)c1cc(C(F)(F)F)c2nc(NC3CCOCC3)[nH]c2c1 [Example 7, N-(tetrahydro-2H-pyran-4-yl)-4,6-bis(trifluoromethyl)-1H-benzo[d]imidazol-2-amine] | 0.9 | −0.32 | < 3% | < 3%
13 | Fc1cc(F)cc(Nc2nc3c(C(F)(F)F)cc(C(F)(F)F)cc3[nH]2)c1 [Example 26, N-(3,5-difluorophenyl)-4,6-bis(trifluoromethyl)-1H-benzo[d]imidazol-2-amine] | 3.4 | 9.4 | 90% | > 99%
14 | FC(F)(F)c1ccc(Nc2nc3c(C(F)(F)F)cc(C(F)(F)F)cc3[nH]2)cc1 [Example 27, 4,6-bis(trifluoromethyl)-N-(4-(trifluoromethyl)phenyl)-1H-benzo[d]imidazol-2-amine] | 1.2 | 8 | < 3% | > 99%
15 | FC(F)(F)c1cc(C(F)(F)F)c2nc(Nc3ccc(Cl)cc3)[nH]c2c1 [Example 2, N-(4-chlorophenyl)-4,6-bis(trifluoromethyl)-1H-benzo[d]imidazol-2-amine] | 4.4 | 6 | > 90% | > 95%
16 | Fc1ccccc1Nc1nc2c(C(F)(F)F)cc(C(F)(F)F)cc2[nH]1 [Example 23, N-(2-fluorophenyl)-4,6-bis(trifluoromethyl)-1H-benzo[d]imidazol-2-amine] | −0.3 | 5.2 | < 3% | > 95%
17 | FC(F)(F)c1cc(C(F)(F)F)c2nc(Nc3ccccc3C(F)(F)F)[nH]c2c1 [Example 28, 4,6-bis(trifluoromethyl)-N-(2-(trifluoromethyl)phenyl)-1H-benzo[d]imidazol-2-amine] | −2 | 2 | < 3% | < 3%
18 | Cn1c(Nc2ccccc2)nc2cc(F)c(F)cc21 [Example 38, 5,6-difluoro-1-methyl-N-phenyl-1H-benzo[d]imidazol-2-amine] | 0.4 | −0.1 | < 3% | < 3%
19 | FC(F)(F)c1cc(C(F)(F)F)c2nc(Nc3ccccc3)[nH]c2c1 [Example 3, N-phenyl-4,6-bis(trifluoromethyl)-1H-benzo[d]imidazol-2-amine] | 1.8 | 3.3 | < 3% | 90%
20 | FC(F)(F)c1cc(C(F)(F)F)c2nc(N3CCCCC3)[nH]c2c1 [Example 16, 2-(piperidin-1-yl)-4,6-bis(trifluoromethyl)-1H-benzo[d]imidazole] | 0.8 | 1 | < 3% | < 3%
21 | Fc1ccc(Nc2nc3c(C(F)(F)F)cc(C(F)(F)F)cc3[nH]2)cc1 [Example 25, N-(4-fluorophenyl)-4,6-bis(trifluoromethyl)-1H-benzo[d]imidazol-2-amine] | 2 | 3.6 | < 3% | 90%
22 | Fc1cc2nc(Nc3cccc(C(F)(F)F)c3)[nH]c2cc1F [Example 10, 5,6-difluoro-N-(3-(trifluoromethyl)phenyl)-1H-benzo[d]imidazol-2-amine] | 2.4 | 2.4 | < 3% | < 3%
23 | CN(c1cccc(C(F)(F)F)c1)c1nc2cccc(C(F)(F)F)c2[nH]1 [Example 42, N-methyl-7-(trifluoromethyl)-N-(3-(trifluoromethyl)phenyl)-1H-benzo[d]imidazol-2-amine] | 1 | 2.1 | < 3% | < 3%
24 | FC(F)(F)c1cc(Nc2nc3c(C(F)(F)F)cccc3[nH]2)cc(C(F)(F)F)c1 [Example 34, N-(3,5-bis(trifluoromethyl)phenyl)-4-(trifluoromethyl)-1H-benzo[d]imidazol-2-amine] | 13.1 | 15.1 | > 99.9% | 100%
25 | COc1ccc(Nc2nc3cc(F)c(F)cc3[nH]2)cc1Br [Example 9, N-(3-bromo-4-methoxyphenyl)-5,6-difluoro-1H-benzo[d]imidazol-2-amine] | −1.1 | 1 | < 3% | < 3%
26 | FC(F)(F)c1cc(C(F)(F)F)c2nc(NCc3ccccc3)[nH]c2c1 [Example 6, N-benzyl-4,6-bis(trifluoromethyl)-1H-benzo[d]imidazol-2-amine] | 2 | 1.6 | < 3% | < 3%
27 | CC1(Nc2nc3c(C(F)(F)F)cc(C(F)(F)F)cc3[nH]2)CCC1 [Example 21, N-(1-methylcyclobutyl)-4,6-bis(trifluoromethyl)-1H-benzo[d]imidazol-2-amine] | 3.6 | 9.3 | > 90% | > 99%
28 | Cn1c(Nc2cc(C(F)(F)F)cc(C(F)(F)F)c2)nc2cc(F)c(F)cc21 [Example 39, N-(3,5-bis(trifluoromethyl)phenyl)-5,6-difluoro-1-methyl-1H-benzo[d]imidazol-2-amine] | 0.5 | 1 | < 3% | < 3%
29 | Fc1cc2nc(Nc3cc(C(F)(F)F)cc(C(F)(F)F)c3)[nH]c2cc1F [Example 11, N-(3,5-bis(trifluoromethyl)phenyl)-5,6-difluoro-1H-benzo[d]imidazol-2-amine] | 5.8 | 10.3 | > 95% | 99.9%
30 | FC(F)(F)c1ccc(Nc2nc3ccc(C(F)(F)F)cc3[nH]2)cc1 [Example 33, 6-(trifluoromethyl)-N-(4-(trifluoromethyl)phenyl)-1H-benzo[d]imidazol-2-amine] | 1.4 | 14.3 | < 3% | 100%
